The test system of one data set is TNBC BT-549 cells. In words: Cell survival / cell inhibition (MTT cell cytotoxicity assay) after 24 h treatment with photosensitizer and/or chemotherapeutic agent, dark or light-irradiated. The class given is cell-based, human. The note with it: for viability at 0.01 µM: low end of 10-100 nM (so in the source); for viability at 1 µM: high end of 100-1000 nM; for cell inhibition (%), combination with cisplatin / cell inhibition (%), combination with doxorubicin / cell inhibition (%), combination with fluorouracil / cell inhibition (%), combination with methotrexate / cell inhibition (%), combination with paclitaxel: light 0.96 J cm−2; for cell inhibition (%), combination with doxorubicin: PS 100 nM + doxorubicin 500 nM; for cell inhibition (%), combination with methotrexate: PS 100 nM + methotrexate 500 nM; for cytotoxicity in the absence of light, PS alone: PS 500 nM. The protocol:
Human mammary epithelial carcinoma cell lines purchased from the American Type Culture Collection BT-549 (ATCC HTB-122) were cultured according to ATCC protocol. BT-549 cells were grown in RPMI 1640 containing 0.023 IU/mL insulin and supplemented with 10% fetal bovine serum (FBS). Cells were grown to 80-90% confluence in 75-cm^2 culture flasks (Corning) for 4-5 days in a humidified incubator (Fisher Scientific Isotemp) with 5% CO2 at 37° C. During the incubation period, growth media was changed once with fresh pre-warmed media (pH 7.2). To harvest the cells, old growth media was aspirated out, and 3 mL 0.25% trypsin solution (Thermo Sci Hyclone) were added. The cells were incubated for 5 minutes, and the cell pellet after centrifugation was resuspended in 3 mL media, broken up gently, then 1 mL of suspended cells was transferred into a new T75 cell culture flask containing pre-warmed media (20 mL) for further culturing.
Cells were grown to confluence in a 96-well plate (9×10^3 cells/well) and co-treated for 24 hours with synthesized photosensitizers (PSs) and chemotherapeutic agents of varying concentrations ranging from 5 nM to 50 μM) in growth media from a stock solution of 10 mM in DMSO (dimethyl sulfoxide, Fisher). After 24-hour treatment, old growth media containing the PSs or compounds were aspirated out and replaced with fresh media. Plates were then positioned below a non-coherent LumaCare LC-122 650 nm light source for 1 minute at an energy fluence rate of 0.96 J/cm^2 and a power of 16 mW/cm^2 (measured using a Newport optical power meter Model 840). Unirradiated cells served as control samples. The following day, cells were washed with pre-warmed PBS, and 11MTT (3-[4,5-dimethyl-thiazol-2-yl]-2.5-diphenyltetrazolium bromide, Sigma, 0.3 mg/mL) in PBS was added to each well. Samples were allowed to incubate for additional 2 hours, after which dark blue crystals formed. DMSO was added to each well and plates were shaken at room temperature for 1 hour to dissolve the purplish-blue formazan crystals. Absorbance values at 570 nm were measured on a microplate reader (BioRad 550). Cell survival was calculated based on the absorbance of the untreated cells alone (as control) and were directly proportional to the number of viable cells in culture. Results were reported as the mean±SD of triplicate measurements.
The unmetallated PS and the indium complexes were used.
Light dose corresponds to an energy fluence rate of 0.96 J/cm^2 used.
Power of 16 mW/cm^2 used.
Cell inhibition in TNBC cells is based on the cell survival (MTT) assay of the binary therapy, blending the effect of PDT and chemotherapeutic agents. […] MePheo serves as a control compound. TNBC cells were then exposed to light after binary treatment for 24 hours.
For orientation: Tetrazolium dyes change colour on reduction, which living cells bring about.

A further data set relates to human TNBC BT-549 cells. In words: Fluorescence microscopy (Hoechst 33258) of cell morphology / cell death pathway. The class given is cell-based. The note with it: fluorouracil 25 μM, dark (FIG. 18U). As to the method:
Grayscale images of cells stained with Hoechst 33258. Morphology of (A) untreated unirradiated cells, sham control; (B) illuminated cells; (C-E) cells treated with: PSs (InCLA, CBTN, and CPA) and paclitaxel in the dark; (F-H) PSs, followed by 1 minute light exposure; (I) paclitaxel unirradiated; (J-L) PSs and paclitaxel in the dark; (M-O) PSs co-treated with paclitaxel, then light-exposed; (P-Q) PSs co-treated with doxorubicin, then irradiated; (R) PSs and cisplatin, dark; (S-T) PSs and cisplatin, irradiated; (U) fluorouracil, dark; (V) InCLA with fluorouracil in the dark; (W) light-exposed and, (X-Y) PSs with methotrexate with light. Inserts indicate enlarged view. […] Light dose in 1 minute=0.96 J cm^−2; in 30 seconds=0.48 J cm^−2. Concentrations: PSs=50 nM; paclitaxel=50 nM; doxorubicin=500 nM; cisplatin=25 μM; fluororuracil=25 μM; and, methotrexate=500 nM.
Cells (1 mL aliquots) obtained from a diluted cell suspension were seeded into each well (1.7 cm^2, 8×10^3 cells/well) of a 4-well culture slide (BD Biosciences) and grown to confluence in 5% CO2 at 37° C. for 3-4 days for attachment to the substratum. After aspirating the old growth media, 1 mL of the photosensitizer and chemotherapeutic agents (with appropriate concentrations) in fresh pre-warmed media at 37° C. was added to each well. After compound treatment for 24 hours, cells were washed twice with 1 mL fresh growth media, and then irradiated with light using LumaCare LC-122 as described above. Cells were stained in the dark with Hoechst 33258 (Molecular Probes) in pre-warmed media for 10 minutes at 37° C., washed twice with filtered PBS, then fixed with filtered paraformaldehyde for 15 minutes in the incubator. After thorough liquid aspiration, the wells were removed and allowed to air dry in the dark for 1 hour. Slides were protected with coverslips, whose edges were sealed using clear fast-drying nail polish and allowed to dry at room temperature in the dark for 30 minutes. Images were recorded using fluorescence microscopy (DAPI for Hoechst 350-390 nm excitation and 460-490 nm emission filters) using an upright fluorescence microscope with Retiga imaging 2000R (Nikon Optiphot-2, 20× and 40×) and an image processing Nikon NIS-Elements V4.0 Qimaging software.
To determine the preferred cell death pathway for the binary chemophotodynamic therapy, tracking the hallmarks of apoptosis or necrosis was accomplished using a nuclear stain to monitor chromatin condensation and cellular contraction. TNBC cells are spindle-shaped and nearly round with intact cytoplasm, diffused chromatin, distinct cellular membrane, and large oval nuclei staining dark blue with the nuclear stain (FIG. 18A-B).

[1] abbreviates: PS 100 nM + cisplatin 25 μM, 24 h.
Where [2] appears, read: PS 100 nM + fluorouracil 25 μM, 24 h.
[3] abbreviates: PS 100 nM + paclitaxel 50 nM, 24 h.

This note sets out measurements from patent US20260306633A1, “A COMBINATION THERAPY FOR CANCER TREATMENT” (Purdue Research Foundation, priority 2023, published 2026).

Where two headings read alike, the source gives them in different places.

For `O=c1[nH]cc(F)c(=O)[nH]1` [fluorouracil, 5-Fluorouracil, reference compound], the viability at 25 µM in the data set on TNBC BT-549 cells (Homo sapiens, BT-549, 24 h, fluorouracil 25 μM, dark, read-out: cell survival, drug only) turned out to be 64%. Also, the viability at 0.1 µM with TNBC BT-549 cells (Homo sapiens, BT-549, 24 h, fluorouracil, dark, high end of 10-100 nM (so in the source), read-out: cell survival, drug only (end of decrease)) amounted to 65%; with TNBC BT-549 cells (Homo sapiens, BT-549, 24 h, fluorouracil, light, high end of 10-100 nM (so in the source), read-out: cell survival, drug only (end of decrease)), 68%. The viability at 0.01 µM with TNBC BT-549 cells (Homo sapiens, BT-549, 24 h, fluorouracil, dark, read-out: cell survival, drug only (start of decrease)) was found to be 87%; with TNBC BT-549 cells (Homo sapiens, BT-549, 24 h, fluorouracil, light, read-out: cell survival, drug only (start of decrease)) it was 85%. For the same compound, the “average decrease in cell survival upon light irradiation compared to unirradiated cells, drug only” value in the data set with TNBC BT-549 cells (drug alone, light vs dark) stood at 9%. Moreover, the “cell morphology, fluorouracil, dark” value with human TNBC BT-549 cells was “did not affect the cellular morphology”.
For the compound `COc1cccc2c1C(=O)c1c(O)c3c(c(O)c1C2=O)C[C@@](O)(C(=O)CO)C[C@@H]3O[C@H]1C[C@H](N)[C@H](O)[C@H](C)O1` [doxorubicin, reference compound], in the data set on TNBC BT-549 cells (Homo sapiens, BT-549, 24 h, doxorubicin 500 nM, dark, read-out: cell survival, drug only), the viability at 0.5 µM worked out at 81%. Moreover, the viability at 1 µM with TNBC BT-549 cells (Homo sapiens, BT-549, 24 h, doxorubicin, dark, read-out: cell survival, drug only (end of decrease)) amounted to 70%; with TNBC BT-549 cells (Homo sapiens, BT-549, 24 h, doxorubicin, light, read-out: cell survival, drug only (end of decrease)), 72%. The viability at 0.1 µM with TNBC BT-549 cells (Homo sapiens, BT-549, 24 h, doxorubicin, dark, low end of 100-1000 nM, read-out: cell survival, drug only (start of decrease)) worked out at 100%; with TNBC BT-549 cells (Homo sapiens, BT-549, 24 h, doxorubicin, light, low end of 100-1000 nM, read-out: cell survival, drug only (start of decrease)) it was 95%. Further, the “average decrease in cell survival upon light irradiation compared to unirradiated cells, drug only” value with TNBC BT-549 cells (drug alone, light vs dark) is recorded as 2-5%.
With `C=Cc1c(C)c2cc3nc(c(CC(=O)OC)c4[nH]c(cc5nc(cc1[nH]2)C(C)=C5CC)c(C)c4C(=O)NCCCCCCNC(=O)c1ccc(C(=C)c2cc4c(cc2C)C(C)(C)CCC4(C)C)cc1)[C@@H](CCC(=O)OC)[C@@H]3C` [CBX, chlorin bexarotene conjugate], in the data set on TNBC BT-549 cells (setting [1]), the “cell inhibition (%), combination with cisplatin” value is listed as 0%. Further, in the data set with TNBC BT-549 cells (24 h), the “cell inhibition (%), combination with doxorubicin” value amounted to 30% and the “cell inhibition (%), combination with methotrexate” value is on record as 42%. Besides, the “cell inhibition (%), combination with fluorouracil” value in the data set with TNBC BT-549 cells (setting [2]) stood at 6%. In addition, the “cell inhibition (%), combination with paclitaxel” value in the data set with TNBC BT-549 cells (setting [3]) turned out to be 48%. In addition, in the data set on TNBC BT-549 cells (dark), the “cytotoxicity in the absence of light, PS alone” value is “No cytotoxicity”.
For `CN(Cc1cnc2nc(N)nc(N)c2n1)c1ccc(C(=O)N[C@@H](CCC(=O)O)C(=O)O)cc1` [methotrexate, reference compound], the viability at 0.5 µM in the data set on TNBC BT-549 cells (Homo sapiens, BT-549, 24 h, methotrexate 500 nM, dark, read-out: cell survival, drug only) was 78%. Further, the viability at 1 µM in the data set on TNBC BT-549 cells (Homo sapiens, BT-549, 24 h, methotrexate, dark, read-out: cell survival, drug only (end of decrease)) turned out to be 66%; in the data set on TNBC BT-549 cells (Homo sapiens, BT-549, 24 h, methotrexate, light, read-out: cell survival, drug only (end of decrease)) it was 66%. For the same compound, the viability at 0.1 µM in the data set on TNBC BT-549 cells (Homo sapiens, BT-549, 24 h, methotrexate, dark, low end of 100-1000 nM, read-out: cell survival, drug only (start of decrease)) was determined as 87%; in the data set on TNBC BT-549 cells (Homo sapiens, BT-549, 24 h, methotrexate, light, low end of 100-1000 nM, read-out: cell survival, drug only (start of decrease)), 93%. Besides, the “average increase in cell survival upon light irradiation compared to unirradiated cells, drug only” value in the data set with TNBC BT-549 cells (drug alone, light vs dark) is 6%.
Regarding `C=Cc1c(C)c2cc3nc(c(CC(=O)OC)c4[nH]c(cc5nc(cc1[nH]2)C(C)=C5CC)c(C)c4C(=O)NCCCCCCNC(=O)CCCC[C@@H]1CCSS1)[C@@H](CCC(=O)OC)[C@@H]3C` [CLA, chlorin lipoic acid conjugate], the “cell inhibition (%), combination with cisplatin” value in the data set on TNBC BT-549 cells (setting [1]) is on record as 65%. The “effect of added cisplatin compared to cisplatin-treated cell viability” value with TNBC BT-549 cells (PS 100 nM + cisplatin 25 μM, light) is recorded as “reduced cell survival”. For the same compound, the “cell survival, co-treatment with cisplatin upon light” value with TNBC BT-549 cells (PS 100 nM + cisplatin 25 μM, light, 1440 min) is listed as 35%. For the same compound, in the data set on TNBC BT-549 cells (24 h), the “cell inhibition (%), combination with doxorubicin” value was determined as 33% and the “cell inhibition (%), combination with methotrexate” value came out at 43%. In addition, the “cell survival, co-treatment with fluorouracil in the dark” value with TNBC BT-549 cells (PS 100 nM + fluorouracil 25 μM, 24 h, dark) amounted to 84%. In the data set on TNBC BT-549 cells (setting [2]), the “cell inhibition (%), combination with fluorouracil” value is on record as 35%. In addition, the “cell survival, co-treatment with paclitaxel in the dark” value with TNBC BT-549 cells (PS 100 nM + paclitaxel 50 nM, 24 h, dark) amounted to 59%. Also, in the data set with TNBC BT-549 cells (setting [3]), the “cell inhibition (%), combination with paclitaxel” value is 45%. Besides, in the data set on TNBC BT-549 cells (PS 100 nM, light 0.96 J/cm^2, 1440 min), the “cell survival, PS alone” value is listed as 90%. Besides, the “cytotoxicity in the absence of light, PS alone” value in the data set with TNBC BT-549 cells (dark) is on record as “No cytotoxicity”. Also, in the data set with TNBC BT-549 cells (PS + cisplatin, light), the “combination therapy vs monotherapy (cisplatin)” value is reported as “better photodynamic effect when co-treated with cisplatin than PS-treatment alone”.
